# From ChEMBL document CHEMBL3507680, “University of Dundee, Gates Library screen for HepG2 cell viability”
# Assay: Human HepG2 cell viability assay in 384 well format
# Format: toxicity, cell-based
# Set-up: dose 125 nL, time 70.5 hour; cytotoxicity at 70.5 h: concentration not given beside the values
# Conditions: HepG2 cells, read-out: Inhibition
structure (smiles),measurement,value
O=C(O)c1cccc(CC2CCN(c3cnccn3)CC2)c1,cytotoxicity at 70.5 h,-2.92%
CC(c1ccon1)N(C)C(=O)C1CCN(C(=O)C2CC2)CC1 (stereo unspecified),cytotoxicity at 70.5 h,-4.84%
c1cncc(CN2CCc3ncnc(NCCc4c[nH]cn4)c3CC2)c1,cytotoxicity at 70.5 h,-1.46%
CCN1CC2(CCC1=O)CCN(Cc1cc(F)ccc1Cl)CC2,cytotoxicity at 70.5 h,-0.396%
CC(C)(N)c1cn(C2CCN(c3ncccc3Cl)CC2)nn1,cytotoxicity at 70.5 h,-9.17%
CCc1cnc(NCCS(=O)(=O)CC(C)C)nc1,cytotoxicity at 70.5 h,19.7%
Cc1ccc(N2CCN(C(=O)[C@@H]3CCC(=O)N3)CC2=O)cc1,cytotoxicity at 70.5 h,-7.74%
O=C(C1CCC1)N1CCN(Cc2ccc(F)cc2)[C@H]2CS(=O)(=O)C[C@H]21,cytotoxicity at 70.5 h,-3.17%
c1ccc(CCc2n[nH]c(CCN3CCCCC3)n2)cc1,cytotoxicity at 70.5 h,-13.4%
O=C(NCCc1c[nH]cn1)c1ccc(S(=O)(=O)NC2CCCC2)cc1,cytotoxicity at 70.5 h,-1.62%
Cc1cc(C)cc(N2CCN(C(=O)CCN3C[C@@H]4CC[C@H]3C4)CC2=O)c1,cytotoxicity at 70.5 h,-11.2%
CCC(C)N(Cc1ccncc1)Cc1ccccc1Cn1cccn1 (stereo unspecified),cytotoxicity at 70.5 h,-11.3%
CN(Cc1nc(Cc2cccc(F)c2)no1)C1CCOCC1,cytotoxicity at 70.5 h,-13.9%
CCO[C@H]1COC[C@@H]1NC(=O)CCc1nc(-c2ccccc2)no1,cytotoxicity at 70.5 h,-8.01%
CS(=O)(=O)N1CCC(c2nccn2Cc2ccccn2)CC1,cytotoxicity at 70.5 h,-5.19%
C=C1C(C)(C)[C@H]2CC[C@]1(C(=O)N1CCC(Cn3cc(CO)nn3)CC1)C2,cytotoxicity at 70.5 h,26.1%
O=C(CN1CCOc2ccccc2C1)N1Cc2cnn(CCO)c2C1,cytotoxicity at 70.5 h,-0.755%
CC(O)C(=O)N1CCC(c2[nH]ncc2-c2ccccc2)CC1 (stereo unspecified),cytotoxicity at 70.5 h,20.2%
CCN(CC)CCN(C)Cc1cn(C)nc1-c1ccc2c(c1)OCCO2,cytotoxicity at 70.5 h,23.5%
Cc1n[nH]c(C)c1CCN(C)c1ccc(-c2nc(C3CC3)no2)cn1,cytotoxicity at 70.5 h,4.49%
Cc1cc(N2CCC(c3ncc[nH]3)CC2)cc(C)n1,cytotoxicity at 70.5 h,-3.01%
CC(C)S(=O)(=O)N1CCCC(c2nccn2Cc2cccnc2)C1 (stereo unspecified),cytotoxicity at 70.5 h,-8.01%
Cn1ccnc1CNc1nccc(-c2ncnn2C)n1,cytotoxicity at 70.5 h,-14.8%
Cc1ccc(C(C(=O)NCCc2nc(C)cc(=O)[nH]2)N(C)C)cc1 (stereo unspecified),cytotoxicity at 70.5 h,7.05%
Cn1cc(C2=CCN(CCCC(=O)Nc3ccc(C#N)cc3)CC2)cn1,cytotoxicity at 70.5 h,18.4%
Cc1nc2c(C(=O)O)cccc2n1-c1ccc(C(=O)N2CCCC2)o1,cytotoxicity at 70.5 h,7.08%
CCn1nc(C)c(CNC(=O)C2COc3ccccc3C2)c1C (stereo unspecified),cytotoxicity at 70.5 h,-8.01%
NC(=O)[C@H]1CCCN1C(=O)c1csc(-c2ccc(C(F)(F)F)cc2)n1,cytotoxicity at 70.5 h,-6.09%
Cc1ccc(-c2ccnc(N(C)CC3CCCN3C)n2)c(C)n1 (stereo unspecified),cytotoxicity at 70.5 h,16.3%
Cc1cc(F)ccc1C(=O)N1CCN(C)C2(CCC(=O)N(C)CC2)C1 (stereo unspecified),cytotoxicity at 70.5 h,-9.21%
CCc1ccc(CN(Cc2ccccc2)CC(C)CO)nc1 (stereo unspecified),cytotoxicity at 70.5 h,-6.55%
c1ccc(C2CCCCN2Cc2nc(-c3cnccn3)no2)nc1 (stereo unspecified),cytotoxicity at 70.5 h,-1.69%
O=C(NCCC1=CCCCC1)c1cc(-c2ccc(O)cc2)n[nH]1,cytotoxicity at 70.5 h,-1.77%
CCN1CCN(C(=O)c2ccc3c(c2)OCC(=O)N3)[C@H]2CS(=O)(=O)C[C@H]21,cytotoxicity at 70.5 h,-12.3%
Cc1cc(C)c(C(=O)N2CCCC(O)(CN3CCCC3)C2)cc1C (stereo unspecified),cytotoxicity at 70.5 h,-4.19%
CC(=O)NCCc1ncnn1-c1ccc(F)c(Cl)c1,cytotoxicity at 70.5 h,7.55%
Cc1nn(C)c(C)c1CN1CCCC(c2ccc(C(=O)O)cc2)C1 (stereo unspecified),cytotoxicity at 70.5 h,-3.35%
Cc1nc[nH]c1C(=O)N1CCCC2(C1)C(=O)N(C)c1ccccc12 (stereo unspecified),cytotoxicity at 70.5 h,-3.87%
COc1cccc(CN2CCN(c3cccc(C(C)C)n3)CC2)c1F,cytotoxicity at 70.5 h,-0.272%
CC(C)[C@H]1CN(Cc2nccn2C)C[C@@H]1NC(=O)COCC(N)=O,cytotoxicity at 70.5 h,-9.51%
NCC1Cc2cc(-c3nccc(N4CCC(O)CC4)n3)cc(Cl)c2O1 (stereo unspecified),cytotoxicity at 70.5 h,5.41%
CCN(Cc1nc(COC)no1)C(=O)CCn1c(C)cc2ccccc21,cytotoxicity at 70.5 h,-0.00353%
CCC[C@@H]1CN(Cc2ccc(N(C)C)nc2)C[C@H]1N(C)C,cytotoxicity at 70.5 h,-9.01%
Cc1cc(CC(C)Nc2ncnc3cccc(F)c23)[nH]n1 (stereo unspecified),cytotoxicity at 70.5 h,2.32%
O=C(NCCc1noc(C2CCCC2)n1)c1cn2ccsc2n1,cytotoxicity at 70.5 h,-6.72%
Nc1nc2c(c(NCc3ccncc3)n1)CCCC2,cytotoxicity at 70.5 h,0.39%
COc1ccc2c(c1)OCC(CNC(=O)c1ccc3[nH]nnc3c1)C2 (stereo unspecified),cytotoxicity at 70.5 h,-9.44%
Cc1n[nH]c(C)c1CC(=O)N1CCC2(CC1)CN(C)CCN2C,cytotoxicity at 70.5 h,23.4%
CCN1CC(C(=O)NCCCc2nc(C)c(C)s2)CC1=O (stereo unspecified),cytotoxicity at 70.5 h,-9.75%
Cc1nc2c(c(N3CC=CC3)n1)CCN(c1ncccc1C(N)=O)CC2,cytotoxicity at 70.5 h,-2.97%
COCc1cc(N2CCN(C3CCCCC3)CC2)n2nccc2n1,cytotoxicity at 70.5 h,-4.81%
CCC(CO)N(C/C(C)=C/c1ccco1)Cc1ccccn1 (stereo unspecified),cytotoxicity at 70.5 h,-6%
Cc1ccc(-c2cnnc(N3CCCC3c3nonc3C)n2)o1 (stereo unspecified),cytotoxicity at 70.5 h,-3.66%
OC1(CNCCN2CCCc3ccccc32)CCNC1 (stereo unspecified),cytotoxicity at 70.5 h,-11.6%
Cc1n[nH]c(C)c1CN(C)C(C(=O)O)c1c(F)cccc1OC(C)C (stereo unspecified),cytotoxicity at 70.5 h,-4.07%
COCc1ncn(Cc2nc(-c3ccc(OC)cc3F)oc2C)n1,cytotoxicity at 70.5 h,51.2%
CC(C)n1cc(C(=O)NCCCc2csc(N)n2)cn1,cytotoxicity at 70.5 h,-9.21%
CCc1cc(NC2CCS(=O)(=O)C2)nc(N2CCCCC2)n1 (stereo unspecified),cytotoxicity at 70.5 h,-3.25%
CN1CCc2[nH]cnc2C12CCN(C(=O)CCc1cccs1)CC2,cytotoxicity at 70.5 h,16.8%
CCc1nccn1CCNC1CCN(c2nc3ccc(Cl)cc3s2)CC1,cytotoxicity at 70.5 h,40.5%
Cc1c(CN2CCc3[nH]cnc3C2C(=O)O)[nH]c2ccc(F)cc12 (stereo unspecified),cytotoxicity at 70.5 h,-20.3%
CSc1ccc(-c2nc(CN3CCC(C(N)=O)CC3)c(C)o2)cc1,cytotoxicity at 70.5 h,-6.77%
CCCNC(=O)N1CCc2ccc(S(=O)(=O)N3CCN(C)CC3)cc2C1,cytotoxicity at 70.5 h,-16.2%
Cc1cc(C)c2ncn(CC(C)(C)CO)c(=O)c2c1,cytotoxicity at 70.5 h,-6.8%
COc1ccc(Cl)cc1CN(C)C(=O)CN1C(=O)OC[C@@H]1C(C)C,cytotoxicity at 70.5 h,-6.97%
Cc1ccnn1CCC(=O)N1CCN(C2CCc3ccccc3C2)CC1 (stereo unspecified),cytotoxicity at 70.5 h,-12.6%
CCC(Nc1nc(C2CCCC2)nc2c1cnn2C)c1ccncc1 (stereo unspecified),cytotoxicity at 70.5 h,8.01%
CCCc1ccc(C(C)Nc2ncnc3c2CCNC3)cc1 (stereo unspecified),cytotoxicity at 70.5 h,-2.09%
CS(=O)(=O)CC1CCCN(C(=O)Cn2cccc(C(F)(F)F)c2=O)C1 (stereo unspecified),cytotoxicity at 70.5 h,6.87%
CCCc1nc(CN(CC)Cc2ccc(O)c(C(=O)O)c2)no1,cytotoxicity at 70.5 h,-8.69%
Cc1cnn(CCCn2ncc(N3CCC(CN)C3)cc2=O)c1 (stereo unspecified),cytotoxicity at 70.5 h,9.78%
O=C(CCN1CCCCO1)NCc1cn2c(n1)SCC2,cytotoxicity at 70.5 h,-0.977%
CN(C)S(=O)(=O)NC1CCCc2c1cnn2-c1ccc(C(C)(C)C)cc1 (stereo unspecified),cytotoxicity at 70.5 h,-2.4%
Cc1cn(CC(=O)Nc2cc(C(C)(C)C)nn2C)cn1,cytotoxicity at 70.5 h,-5.53%
CCc1[nH]c2c(CNc3nccc(N)n3)cc(C)cc2c1C,cytotoxicity at 70.5 h,23.9%
Cc1cc(N2Cc3cnc(CC(C)C)nc3C2)nc(N)n1,cytotoxicity at 70.5 h,0.669%
CCN(C)C[C@@H]1CN(C(=O)c2cc(C(F)(F)F)n[nH]2)C[C@@H]1CO,cytotoxicity at 70.5 h,-10%
O=C(CCCNCc1ccccc1)N1CCCn2cncc2C1,cytotoxicity at 70.5 h,-4.58%
CCCc1nc(N2CCCN(c3ccncc3)CC2)c2cnn(C)c2n1,cytotoxicity at 70.5 h,-11.6%
CSc1nc(N)cc(N2C[C@@H]3CC[C@H](C2)N(Cc2cscn2)C3=O)n1,cytotoxicity at 70.5 h,7.64%
CCc1nc(CCn2cc(-c3nccn3C)nn2)no1,cytotoxicity at 70.5 h,-9.68%
Cc1n[nH]c(CN2CCN(C(=O)C3CCC3)[C@@H]3CS(=O)(=O)C[C@@H]32)n1,cytotoxicity at 70.5 h,0.743%
COc1ccc(-c2noc(-c3ccc(N4CCC[C@H]4CO)nc3)n2)cc1,cytotoxicity at 70.5 h,10.2%
Cc1ccnn1CC(=O)N(C)Cc1ccc(-n2cccn2)cc1,cytotoxicity at 70.5 h,-7.33%
N[C@H]1CN(C(=O)c2ccc3[nH]c(=O)c(=O)[nH]c3c2)C[C@@H]1c1ccccc1,cytotoxicity at 70.5 h,-16.1%
Cc1[nH]nc(CCC(=O)N2CCc3c(nc[nH]c3=O)C2)c1C,cytotoxicity at 70.5 h,-15.9%
OCCC[C@@H]1CN(c2ncc(Cl)cc2Cl)CC[C@@H]1N1CCOCC1,cytotoxicity at 70.5 h,3.21%
CN(C)CCN1CC(C(=O)N2CCC(c3cccc(O)c3)CC2)CC1=O (stereo unspecified),cytotoxicity at 70.5 h,2.7%
CC(C)(C)N1CC(C(=O)NCc2cn3cccnc3n2)CC1=O (stereo unspecified),cytotoxicity at 70.5 h,-5.98%
Cc1cc(NC2CCC(=O)N(C)C2)n2nccc2n1 (stereo unspecified),cytotoxicity at 70.5 h,-9.21%
CN1CCNC(=O)C12CCN(C(=O)c1ccc3[nH]c(=O)[nH]c3c1)CC2,cytotoxicity at 70.5 h,-7.66%
c1ccc(CCN2CCN(C3CCOC4(CCOCC4)C3)CC2)nc1 (stereo unspecified),cytotoxicity at 70.5 h,-9.08%
CCN(CC)CCC(=O)N1CCc2c(nc(N(C)C)nc2N(C)C)C1,cytotoxicity at 70.5 h,29.3%
CCCc1nc(C)cc(NC(C)Cc2cnccn2)n1 (stereo unspecified),cytotoxicity at 70.5 h,-10.8%
CCOCCNCc1cc(O)c2cc(C)ccc2n1,cytotoxicity at 70.5 h,-5.02%
Cn1ncc(N2CCOC(CCNC(=O)CO)C2)cc1=O (stereo unspecified),cytotoxicity at 70.5 h,13.3%
COCCN1CCN(Cc2cccnc2)[C@H]2CS(=O)(=O)C[C@H]21,cytotoxicity at 70.5 h,21.4%
COCCN1CCCC2(CCN(c3nc(C)nc4ccsc34)C2)C1=O (stereo unspecified),cytotoxicity at 70.5 h,-11.8%
COc1cccn(CC(=O)N2CCCC3(CCOCC3)C2)c1=O,cytotoxicity at 70.5 h,-1.15%
Cc1cc(-c2nccn2CCN2CCCCC2CO)oc1C (stereo unspecified),cytotoxicity at 70.5 h,-5.85%
O=C(c1ncc[nH]1)N1CCC(n2cc(-c3ccccn3)nn2)CC1,cytotoxicity at 70.5 h,0.522%
CCN(C)C[C@@H]1CN(S(=O)(=O)c2cccc(C#N)c2)C[C@@H]1CO,cytotoxicity at 70.5 h,-5.18%
O=C(NCc1ccc2c(c1)CCCO2)C1CNCCO1 (stereo unspecified),cytotoxicity at 70.5 h,48.5%
CN1C[C@@H](N)C[C@H]1C(=O)N1CCC(Cc2ccc(F)cc2)CC1,cytotoxicity at 70.5 h,0.737%
COCc1noc(CN2CCCCC2CCc2cccs2)n1 (stereo unspecified),cytotoxicity at 70.5 h,-14.8%
CCCOC1CCCN(c2nc(CC)nc3c2cnn3C)C1 (stereo unspecified),cytotoxicity at 70.5 h,-10.7%
N[C@@H]1CC[C@H](C(=O)NCc2ccc3nonc3c2)C1,cytotoxicity at 70.5 h,-13.2%
CC1CCCN1Cc1cccc(C(=O)Nc2ccc3[nH]c(=O)oc3c2)c1 (stereo unspecified),cytotoxicity at 70.5 h,30.6%
c1cncc(C(Cn2cnnc2)N2CCOCC2)c1 (stereo unspecified),cytotoxicity at 70.5 h,2.14%
Cc1ccc([C@@H]2CN(S(=O)(=O)N3CCC(C)CC3)C[C@H]2N(C)C)cc1,cytotoxicity at 70.5 h,-12.1%
COc1nc2c(cc1C(=O)NC(C)Cc1cc(C)n[nH]1)CCC2 (stereo unspecified),cytotoxicity at 70.5 h,-12%
